This passage reports Inhibitions zones diameters results from US12715781B2, “Water treatment and purification method” (priority 2019, dated 2026).

One assay relates to E. coli. Put plainly: Agar well diffusion, zone of inhibition. The class given is cell-based. The note with it: 8 mm wells, nanoparticles 100 μL (50 μg) per well, tetracycline 15 μg/wells, 24 hr at 37° C. As to the method: (§1) For bacterial growth, a lawn of culture was prepared by spreading the […] of each test organism on nutrient agar plates. Plates were left standing for 10 minutes to let the culture get absorbed. Then 8 mm wells were punched into the nutrient agar plates for testing nanomaterial antimicrobial activity. Using a micropipette, 100 μL (50 μg) of the sample of nanoparticle suspension was poured onto each of five wells on all plates. After 24 hr incubation at 37° C.±2° C., the diameter of inhibition zone was measured.
(Agar diffusion results depend on both activity and mobility in agar.)

The next assay concerns S. aureus ATCC 25923. Put plainly: Agar well diffusion, zone of inhibition. The class given is cell-based, Staphylococcus aureus. Conditions: 8 mm wells, nanoparticles 100 μL (50 μg) per well, tetracycline 15 μg/wells, 24 hr at 37° C. How it is done: as §1

Regarding `CN(C)[C@@H]1C(O)=C(C(N)=O)C(=O)[C@@]2(O)C(O)=C3C(=O)c4c(O)cccc4[C@@](C)(O)[C@H]3C[C@@H]12` [Tetracycline, tetracycline], the values for the Inhibitions zones diameters with E. coli and with S. aureus ATCC 25923 were 20 ± 0.2 mm and 18 ± 0.2 mm, respectively.
